Read-outs that look alike come from different tables or passages of the source. Values belong to the compound of their own block, whether it stands above or below them. Starred links: 1 amine or outer side, 2 acyl side, 3 side chain; linkers in the order of their positions; H or OH if unused. Positions of bridges follow the written chain, without caps; N, C: chain ends. Non-standard residues stand in square brackets, D forms with d. Residues, ends and D or L forms follow the SMILES beside them. Groups on a side chain read outwards from the residue. *: point of attachment. CH3O(CH2CH2O)11CH2CH2CO = COCCOCCOCCOCCOCCOCCOCCOCCOCCOCCOCCOCCC(=O)*; X5 = CCCCCCCCCCCCCCCC(=O)NCC[N+](C)(C)CC(=O)*; C18 diacid = O=C(O)CCCCCCCCCCCCCCCCC(=O)*; Dip = N[C@H](C(=O)O)C(c1ccccc1)c1ccccc1; X6 = O=C([C@H](CC1N=NN=N1)N[*:1])[*:2]; Palmitoyl = CCCCCCCCCCCCCCCC(=O)*; β3hF = N[C@H](CC(=O)O)Cc1ccccc1; NMeK = CN[C@@H](CCCCN)C(=O)O; Pen = CC(C)(S)[C@H](N)C(=O)O; Isovaleryl = CC(C)CC(=O)*; Dap = NC[C@H](N)C(=O)O; AEEA = NCCOCCOCC(=O)O; Ahx = NCCCCCC(=O)O
What was measured:
[1] = target: human ferroportin (SLC40A1) fused in frame with the GFP protein (human) (UniProt Q9NP59); experiment: cell-based or functional assay
ferroportin [2] = target: T1, ferroportin (Homo sapiens, UniProt Q9NP59); experiment: FPN activity assay: ferroportin-GFP internalization/degradation in HEK293 cells; type: cell-based; design: expressed in transfected cells; conditions: read-out: FPN IC50
T1 sequence (Q9NP59 1-571): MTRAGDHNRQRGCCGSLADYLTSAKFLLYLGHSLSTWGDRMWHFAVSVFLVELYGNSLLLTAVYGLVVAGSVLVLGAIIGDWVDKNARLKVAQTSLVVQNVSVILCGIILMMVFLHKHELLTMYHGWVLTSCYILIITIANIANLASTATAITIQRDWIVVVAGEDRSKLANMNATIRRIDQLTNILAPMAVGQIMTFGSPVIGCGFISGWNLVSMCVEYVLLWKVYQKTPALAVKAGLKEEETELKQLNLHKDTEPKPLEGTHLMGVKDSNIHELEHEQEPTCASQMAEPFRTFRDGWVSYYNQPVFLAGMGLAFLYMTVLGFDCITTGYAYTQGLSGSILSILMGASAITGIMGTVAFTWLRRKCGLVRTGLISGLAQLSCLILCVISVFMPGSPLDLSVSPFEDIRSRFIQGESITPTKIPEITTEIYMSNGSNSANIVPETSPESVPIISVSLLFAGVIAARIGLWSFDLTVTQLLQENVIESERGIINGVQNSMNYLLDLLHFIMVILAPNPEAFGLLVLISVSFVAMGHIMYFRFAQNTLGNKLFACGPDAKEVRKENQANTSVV
Experimental: Following internalization, the ferroporin protein is degraded.
A retro inverse peptide is a peptide with a reversed sequence in all D amino acids. An example is that Hy-Glu-Thr-His-NH2 becomes Hy-DHis-DThr-DGlu-NH2. The EC50 of these reference compounds for ferroportin internalization/degradation was determined according to the FPN activity assay described above. These peptides served as control standards.

ferroportin [3] = target: T1, ferroportin; experiment: T47D cell-based ferroportin internalization assay in presence of mouse serum albumin (MSA); design: a human breast carcinoma adherent cell line which endogenously expresses ferroportin; host or cells: T47D
How it was run: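 Peptide potency for inducing ferroportin internalization was measured in T47D cells in the presence of serum albumin. Cells grown in RPMI with fetal bovine serum were seeded in 96-well plates at 80-100 k cells per well in 100 ul and rested overnight. Dilution series of test peptides were preincubated 30 min at room temperature, then added to the cells after the medium was aspirated.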

[4] = ferroportin-GFP internalization/degradation, HEK293 cells, Table 6E
[5] = T47D internalization assay in presence of mouse serum albumin (MSA), Table 6E
[6] = ferroportin-GFP HEK293 cells, at least 18 hours
[7] = T47D cells, 0.5% mouse serum albumin, 1 hr incubation
[8] = Table 6E, ferroportin-GFP internalization/degradation, at least 18 hours incubation
[9] = Table 6E, T47D internalization assay with MSA

- DC50 (ferroportin [2]; [4]): 0.01 to 0.1 µM
- IC50 (ferroportin [3]; [5]): 0.01 to 0.1 µM
Compound: CC(C)CC(=O)N[C@@H](CCC(=O)O)C(=O)N[C@H](C(=O)N[C@@H](Cc1c[nH]cn1)C(=O)N[C@H](C(=O)N1CCC[C@H]1C(=O)N[C@H]1CSSC(C)(C)[C@@H](C(=O)N[C@@H](CCCCNC(=O)COCCOCCNC(=O)COCCOCCNC(=O)[C@H](CN)NC(=O)CCCCCCCCCCCCCCCCC(=O)O)C(=O)N[C@H](CC(=O)N[C@H](CCCCN)C(N)=O)Cc2ccccc2)NC1=O)C(c1ccccc1)c1ccccc1)[C@@H](C)O [compound 272] (Isovaleryl-ETH[Dip]PC[Pen]K([AEEA-AEEA-Dap-C18 diacid])[β3hF][dK]-NH2; disulfide 6-7)

- DC50 (ferroportin [2]; [4]): 0.01 to 0.1 µM
- IC50 (ferroportin [3]; [5]): 0.01 to 0.1 µM
Compound: CC(C)CC(=O)N[C@@H](CC1N=NN=N1)C(=O)N[C@H](C(=O)N[C@@H](Cc1cnc[nH]1)C(=O)N[C@H](C(=O)N1CCC[C@H]1C(=O)N[C@H]1CSSC[C@@H](C(=O)N(C)[C@@H](CCCCNC(=O)COCCOCCNC(=O)COCCOCCNC(=O)[C@H](CN)NC(=O)CCCCCCCCCCCCCCCCC(=O)O)C(=O)N[C@H](CC(=O)N[C@H](CCCCN)C(N)=O)Cc2ccccc2)NC1=O)C(c1ccccc1)c1ccccc1)[C@@H](C)O [compound 288] (Isovaleryl-[X6]TH[Dip]PCC[NMeK]([AEEA-AEEA-Dap-C18 diacid])[β3hF][dK]-NH2; disulfide 6-7)

- DC50 (ferroportin [2]; [4]): 0.01 to 0.1 µM
- IC50 (ferroportin [3]; [5]): 0.01 to 0.1 µM
Compound: COCCOCCOCCOCCOCCOCCOCCOCCOCCOCCOCCOCCC(=O)NCCCC[C@@H](NC(=O)C[C@H](Cc1ccccc1)NC(=O)[C@H](CCCCNC(=O)COCCOCCNC(=O)COCCOCCNC(=O)[C@H](CN)NC(=O)CCCCCCCCCCCCCCCCC(=O)O)N(C)C(=O)[C@@H]1CSSC[C@H](NC(=O)[C@@H]2CCCN2C(=O)[C@@H](NC(=O)[C@H](Cc2c[nH]cn2)NC(=O)[C@@H](NC(=O)[C@H](CCC(=O)O)NC(=O)CC(C)C)[C@@H](C)O)C(c2ccccc2)c2ccccc2)C(=O)N1)C(N)=O [compound 255] (Isovaleryl-ETH[Dip]PCC[NMeK]([AEEA-AEEA-Dap-C18 diacid])[β3hF][dK](CH3O(CH2CH2O)11CH2CH2CO)-NH2; disulfide 6-7)

- DC50 (ferroportin [2]; [4]): 0.01 to 0.1 µM
- IC50 (ferroportin [3]; [5]): 0.01 to 0.1 µM
Compound: CC(C)CC(=O)N[C@@H](CCC(=O)O)C(=O)N[C@H](C(=O)N[C@@H](Cc1c[nH]cn1)C(=O)N[C@H](C(=O)N1CCC[C@H]1C(=O)N[C@H]1CSSC[C@@H](C(=O)N(C)[C@@H](CCCCNC(=O)COCCOCCNC(=O)COCCOCCNC(=O)[C@H](CN)NC(=O)CCCCCCCCCCCCCCCCC(=O)O)C(=O)N[C@H](CC(=O)N[C@H](CCCCN)C(N)=O)Cc2ccccc2)NC1=O)C(c1ccccc1)c1ccccc1)[C@@H](C)O [compound 306] (Isovaleryl-ETH[Dip]PCC[NMeK]([AEEA-AEEA-Dap-C18 diacid])[β3hF][dK]-NH2; disulfide 6-7)

- DC50 (ferroportin [2]; [4]): 0.01 to 0.1 µM
- IC50 (ferroportin [3]; [5]): 0.01 to 0.1 µM
Compound: COC(=O)CC[C@H](NC(=O)CC(C)C)C(=O)N[C@H](C(=O)N[C@@H](Cc1c[nH]cn1)C(=O)N[C@H](C(=O)N1CCC[C@H]1C(=O)N[C@H]1CSSC[C@@H](C(=O)N(C)[C@@H](CCCCNC(=O)COCCOCCNC(=O)COCCOCCNC(=O)[C@H](CN)NC(=O)CCCCCCCCCCCCCCCCC(=O)O)C(=O)N[C@H](CC(=O)N[C@H](CCCCN)C(N)=O)Cc2ccccc2)NC1=O)C(c1ccccc1)c1ccccc1)[C@@H](C)O [compound 305] (Isovaleryl-E(OMe)TH[Dip]PCC[NMeK]([AEEA-AEEA-Dap-C18 diacid])[β3hF][dK]-NH2; disulfide 6-7)

Second part, the compound before the results:

Compound: Hepcidin (ligand)
- Potency EC50 [1]: 0.034 µM

Compound: CC[C@H](C)[C@@H]1NC(=O)[C@@H](NC(=O)[C@@H]2CCCN2C(=O)[C@@H](NC(=O)[C@H](Cc2c[nH]cn2)NC(=O)[C@@H](NC(=O)[C@H](CCC(=O)O)NC(=O)CC(C)C)[C@@H](C)O)C(c2ccccc2)c2ccccc2)CSSC[C@@H](C(=O)N[C@H](CC(=O)N[C@@H](CCCCNC(=O)COCCOCCNC(=O)COCCOCCNC(=O)CCCCCNC(=O)CCCCCCCCCCCCCCCCC(=O)O)C(=O)N[C@H](CCCCN)C(N)=O)Cc2ccccc2)NC1=O [Compd 27] (Isovaleryl-ETH[Dip]PCIC[β3hF]K([AEEA-AEEA-Ahx-C18 diacid])[dK]-NH2; disulfide 6-8)
- DC50 (ferroportin [2]; [6]): 0.01 to 0.1 µM
- IC50 (ferroportin [3]; [7]): 0.01 to 0.1 µM

Compound: CCCCCCCCCCCCCCCC(=O)NCCCCCC(=O)NCCCC[C@H](NC(=O)[C@@H]1CSSC[C@H](NC(=O)[C@@H]2CCCN2C(=O)[C@@H](NC(=O)[C@H](Cc2c[nH]cn2)NC(=O)[C@@H](NC(=O)[C@H](CCC(=O)O)NC(=O)CC(C)C)[C@@H](C)O)C(c2ccccc2)c2ccccc2)C(=O)N1)C(=O)N[C@H](CC(=O)N[C@H](CCCCN)C(N)=O)Cc1ccccc1 [Compd 39] (Isovaleryl-ETH[Dip]PCCK([Ahx-Palmitoyl])[β3hF][dK]-NH2; disulfide 6-7)
- DC50 (ferroportin [2]; [6]): 0.01 to 0.1 µM
- IC50 (ferroportin [3]; [7]): 0.001 to 0.01 µM

Compound: CCCCCCCCCCCCCCCC(=O)NCC[N+](C)(C)CC(=O)NCCCC[C@H]1C(=O)N[C@@H](C(c2ccccc2)c2ccccc2)C(=O)N[C@@H](C(N)=O)CCCCNC(=O)CC[C@H](NC(=O)CC(C)C)C(=O)N[C@@H]([C@@H](C)O)C(=O)N[C@@H](Cc2c[nH]cn2)C(=O)N[C@@H](C(c2ccccc2)c2ccccc2)C(=O)N2CCC[C@H]2C(=O)N[C@H]2CSSC[C@H](NC2=O)C(=O)N1C [compound 143] (Isovaleryl-ETH[Dip]PCC[NMeK](X5)[Dip][dK]-NH2; lactam 1-10; disulfide 6-7)
- DC50 (ferroportin [2]; [8]): 0.01 to 0.1 µM
- IC50 (ferroportin [3]; [9]): 0.001 to 0.01 µM

Compound: COC(=O)CC[C@H](NC(=O)CC(C)C)C(=O)N[C@H](C(=O)N[C@@H](Cc1c[nH]cn1)C(=O)N[C@H](C(=O)N1CCC[C@H]1C(=O)N[C@H]1CSSC[C@@H](C(=O)N(C)[C@@H](CCCCNC(=O)CCCCCNC(=O)[C@H](CN)NC(=O)CCCCCCCCCCCCCCCCC(=O)O)C(=O)N[C@H](C(=O)N[C@H](CCCCN)C(N)=O)C(c2ccccc2)c2ccccc2)NC1=O)C(c1ccccc1)c1ccccc1)[C@@H](C)O [compound 207] (Isovaleryl-E(OMe)TH[Dip]PCC[NMeK]([Ahx-Dap-C18 diacid])[Dip][dK]-NH2; disulfide 6-7)
- DC50 (ferroportin [2]; [8]): 0.001 to 0.01 µM
- IC50 (ferroportin [3]; [9]): 0.01 to 0.1 µM

Compound: CCCCCCCCCCCCCCCC(=O)NCCCC[C@H]1C(=O)N[C@@H](C(c2ccccc2)c2ccccc2)C(=O)N[C@@H](C(N)=O)CCCCNC(=O)CC[C@H](NC(=O)CC(C)C)C(=O)N[C@@H]([C@@H](C)O)C(=O)N[C@@H](Cc2c[nH]cn2)C(=O)N[C@@H](C(c2ccccc2)c2ccccc2)C(=O)N2CCC[C@H]2C(=O)N[C@H]2CSSC[C@H](NC2=O)C(=O)N1C [compound 142] (Isovaleryl-ETH[Dip]PCC[NMeK](Palmitoyl)[Dip][dK]-NH2; lactam 1-10; disulfide 6-7)
- DC50 (ferroportin [2]; [8]): 0.001 to 0.01 µM
- IC50 (ferroportin [3]; [9]): 0.01 to 0.1 µM
